EP4813992A1, “POLYARYL DERIVATIVE AND USE THEREOF” (Hangzhou HealZen Therapeutics Co., Ltd., priority 2023, dated 2025)

target: HPK1 kinase (Homo sapiens, UniProt Q92918); test: Lantha screen assay, inhibitory effect on HPK1 kinase; assay type: biochemical; conditions: initial compound concentration 1 µM
Protocol: The Lantha screen assay is used to evaluate the inhibitory effect of the compounds on HPK1 kinase. • a) Kinase buffer: 50 mM HEPES (pH 7.5), 10 mM MgCl2, 4 mM DTT, 0.01% Tween-20, 0.01% BSA. • b) Compound Preparation: The compound is diluted with DMSO, and the initial detection concentration of the compound is 1 µM and is diluted to the corresponding concentration. • c) Kinase response and termination: A kinase solution is prepared by adding kinase buffer, the kinase solution and the compound are added to the test plate to be incubated at room temperature for 10 minutes. Fluorescein-PKC and ATP are added to the kinase buffer to form a substrate solution, and 5 µl of the substrate solution is added to the test plate to start the reaction to be incubated at room temperature for 90 minutes; then, 10 µl of a mixture of antibody and EDTA is added to terminate the reaction to be incubated at room temperature for 60 minutes. • d) The date is read by Envision instrument to plot a curve with the Log concentration of the inhibitor as the X-axis and the inhibition rate as the Y-axis, and then the formula Y=Bottom + (Top-Bottom)/(1+(IC50/X)^HillSlope) is used to obtain IC50. Table 1 Inhibitory activity the compounds of the invention on HPK1 kinase

Sequence of HPK1 kinase (Q92918 whole entry): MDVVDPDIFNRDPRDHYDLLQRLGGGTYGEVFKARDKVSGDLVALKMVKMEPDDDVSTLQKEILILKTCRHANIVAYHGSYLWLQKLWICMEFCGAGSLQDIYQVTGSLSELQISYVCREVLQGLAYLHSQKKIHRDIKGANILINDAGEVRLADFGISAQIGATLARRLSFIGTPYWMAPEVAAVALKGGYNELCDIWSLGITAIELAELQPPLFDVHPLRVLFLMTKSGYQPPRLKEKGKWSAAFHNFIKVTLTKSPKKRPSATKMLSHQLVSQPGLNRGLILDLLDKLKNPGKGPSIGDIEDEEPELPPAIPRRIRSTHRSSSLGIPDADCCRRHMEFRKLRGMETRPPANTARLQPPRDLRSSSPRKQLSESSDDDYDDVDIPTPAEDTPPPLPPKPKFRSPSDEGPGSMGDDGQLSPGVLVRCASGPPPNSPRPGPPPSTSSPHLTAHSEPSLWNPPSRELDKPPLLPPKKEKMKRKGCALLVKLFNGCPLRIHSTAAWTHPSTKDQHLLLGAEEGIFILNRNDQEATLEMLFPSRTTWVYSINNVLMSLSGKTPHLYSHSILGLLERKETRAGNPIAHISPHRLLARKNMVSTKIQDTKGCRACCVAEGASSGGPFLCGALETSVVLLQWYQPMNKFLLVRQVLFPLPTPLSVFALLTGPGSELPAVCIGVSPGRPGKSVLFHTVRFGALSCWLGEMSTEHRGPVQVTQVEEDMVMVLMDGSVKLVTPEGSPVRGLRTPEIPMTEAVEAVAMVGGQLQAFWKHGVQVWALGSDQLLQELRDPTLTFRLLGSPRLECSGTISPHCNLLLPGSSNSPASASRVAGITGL

Row | Compound | IC50 [nM]
1 | Cc1cc(-c2cnc3[nH]cc(-c4ccc(C(=O)N(C)C)cc4)c3n2)cc(C)c1C1=CCN(CC2CN(c3ccc(C(=O)N[C@H]4CCC(=O)NC4=O)c(F)c3)C2)CC1 [compound 071] | < 10
2 | Cc1ccc(C(=O)N2CC(N3CC=C(c4c(C)cc(-c5cnc6[nH]cc(-c7ccc8c(c7)CCN(C)C8=O)c6n5)cc4C)CC3)C2)cc1N1CCC(=O)NC1=O [compound 072] | < 10
3 | Cc1cc(-c2cnc3[nH]cc(-c4ccc(C(=O)N(C)C)cc4)c3n2)cc(C)c1C1=CCN(CC2CCN(c3ccc(C(=O)NC4CCC(=O)NC4=O)cc3)C2)CC1 (stereo not shown) [compound 074] | < 10
4 | Cc1cc(-c2cnc3[nH]cc(-c4ccc(C(=O)N5CC6(COC6)C5)cc4)c3n2)cc(C)c1C1=CCN(CC2CN(c3ccc(C(=O)NC4CCC(=O)NC4=O)cc3)C2)CC1 (stereo not shown) [compound 075] | < 10
5 | Cc1cc(-c2cnc3[nH]nc(-c4ccc(C(=O)N(C)C)cc4)c3n2)cc(C)c1C1=CCN(CC2CCN(c3ccc(N4CCC(=O)NC4=O)c(F)c3)C2)CC1 (stereo not shown) [compound 076] | < 10
6 | Cc1cc(-c2cnc3[nH]nc(-c4ccc(C(=O)N(C)C)cc4)c3c2)cc(C)c1C1=CCN(CC2CN(c3ncc(C(=O)NC4CCC(=O)NC4=O)o3)C2)CC1 (stereo not shown) [compound 077] | < 10
7 | Cc1cc(-c2cnc3[nH]nc(-c4ccc(C(=O)N(C)C)cc4)c3c2)cc(C)c1C1=CCN(CC2CCN(C(=O)c3ccc(F)c(N4CCC(=O)NC4=O)c3)C2)CC1 (stereo not shown) [compound 078] | < 10
8 | Cc1cc(-c2cnc3[nH]nc(-c4ccc(C(=O)N(C)C)cc4)c3c2)cc(C)c1C1=CCN(C2CCN(c3ccc(C(=O)NC4CCC(=O)NC4=O)cn3)CC2)CC1 (stereo not shown) [compound 080] | < 10
9 | COc1ccc(C(=O)N2CCC(CN3CC=C(c4c(C)cc(-c5cnc6scc(-c7ccc(C(=O)N(C)C)cc7)c6n5)cc4C)CC3)C2)cc1N1CCC(=O)NC1=O (stereo not shown) [compound 082] | < 10
10 | COc1cc(N2CC(CN3CC=C(c4c(C)cc(-c5cnc6scc(-c7ccc(C(=O)N(C)C)cc7)c6n5)cc4C)CC3)C2)ccc1C(=O)NC1CCC(=O)NC1=O (stereo not shown) [compound 083] | < 10
11 | Cc1cc(-c2cnc3[nH]cc(-c4ccc(C(=O)N(C)C)cc4)c3n2)cc(C)c1C1=CCN(CC2CN(c3ccc4c(=O)n(C5CCC(=O)NC5=O)ccc4c3)C2)CC1 (stereo not shown) [compound 084] | < 10
12 | Cc1cc(-c2cnc3[nH]cc(-c4ccc(C(=O)N(C)C)cc4)c3n2)cc(C)c1C1=CCN(CC2CN(c3ccc(NC4CCC(=O)NC4=O)nc3)C2)CC1 (stereo not shown) [compound 087] | < 10
13 | Cc1cc(-c2cnc3[nH]cc(-c4ccc(C(=O)N(C)C)cc4)c3n2)cc(C)c1C1=CCN(CC2CN(C3=CC(=O)N(C4CCC(=O)NC4=O)C3=O)C2)CC1 (stereo not shown) [compound 088] | < 10
14 | CNS(=O)(=O)c1cc(C)cc(-c2cnc(N)c(Oc3cnn(C4CCN(CC5CN(c6ccc(C(=O)NC7CCC(=O)NC7=O)cc6)C5)CC4)c3)n2)c1 (stereo not shown) [compound 090] | < 10
15 | Cc1cc(N2CC(CN3CC=C(c4c(C)cc(-c5cnc(N)c(Oc6ccc(C(=O)N(C)C)cc6)n5)cc4C)CC3)C2)ccc1N1CCC(=O)NC1=O [compound 091] | < 10
16 | Cc1cc(N2CC(CN3CC=C(c4c(C)cc(-c5cnc(N)c(Oc6cnn(C7CCN(C)CC7)c6)n5)cc4C)CC3)C2)ccc1N1CCC(=O)NC1=O [compound 092] | < 10

Row | Compound | IC50 [nM]
17 | Cc1cc(-c2cnc(N)c(Oc3ccc(C(=O)N(C)C)cc3)n2)cc(C)c1C1=CCN(CC2CN(c3ccc(C(=O)NC4CCC(=O)NC4=O)cc3)C2)CC1 (stereo not shown) [compound 093] | < 10
18 | Cc1cc(-c2cnc(N)c(OCc3ccc(C(=O)N(C)C)cc3)n2)cc(C)c1C1=CCN(CC2CN(c3ccc(C(=O)NC4CCC(=O)NC4=O)cc3)C2)CC1 (stereo not shown) [compound 094] | < 10
19 | Cc1cc(-c2cnc(N)c(Oc3cnn(C4CCN(C)CC4)c3)n2)cc(C)c1C1=CCN(CC2CN(c3ccc(C(=O)NC4CCC(=O)NC4=O)cc3)C2)CC1 (stereo not shown) [compound 095] | < 10
20 | Cc1cc(-c2cnc(N)c(Oc3cnn(C4CCN(C)CC4)c3)n2)cc(C)c1C1=CCN(CC2CN(c3ccc(C4CCC(=O)NC4=O)cc3)C2)CC1 (stereo not shown) [compound 096] | < 10
21 | Cc1cc(-c2cnc3[nH]cc(-c4ccc(C(=O)N(C)C)cc4)c3n2)cc(C)c1C1=CCN(CC2CN(c3ccc(C(=O)NC4CCC(=O)NC4=O)c(F)c3)C2)CC1 (stereo not shown) [compound 100] | < 10
22 | Cc1cc(N2CC(CN3CC=C(c4c(C)cc(-c5cnc6[nH]cc(-c7cccc(C#N)c7F)c6c5)cc4C)CC3)C2)ccc1N1CCC(=O)NC1=O [compound 101] | < 10
23 | Cc1cc(-c2cnc3[nH]cc(-c4ccc(C(=O)N(C)C)cc4)c3n2)cc(C)c1C1=CCN(CC2CN(c3ccc(C4CCC(=O)NC4=O)cc3)C2)CC1 (stereo not shown) [compound 102] | < 10
24 | Cc1cc(N2CC(CN3CC=C(c4c(C)cc(-c5cnc6[nH]cc(-c7ccc(N8CCOCC8)nc7)c6c5)cc4C)CC3)C2)ccc1N1CCC(=O)NC1=O [compound 103] | < 10
25 | Cc1cc(-c2cnc3[nH]cc(-c4ccc(C(=O)N(C)C)cc4)c3n2)cc(C)c1C1=CCN(CC2CN(c3ccc(NC4CCC(=O)NC4=O)cc3F)C2)CC1 (stereo not shown) [compound 106] | < 10
26 | Cc1cc(N2CC(CN3CC=C(c4c(C)cc(-c5cnc6[nH]cc(-c7cnn(C8CCOCC8)c7)c6c5)cc4C)CC3)C2)ccc1N1CCC(=O)NC1=O [compound 114] | < 10
27 | Cc1cc(N2CC3CC(N4CC=C(c5c(C)cc(-c6cnc7[nH]cc(-c8ccc(C(=O)N(C)C)cc8)c7c6)cc5C)CC4)CC3C2)ccc1N1CCC(=O)NC1=O (stereo not shown) [compound 115] | < 10
28 | Cc1cc(N2CC(CN3CC=C(c4c(C)cc(-c5cnc6[nH]cc(-c7cnn(C8CCN(C9CC9)CC8)c7)c6c5)cc4C)CC3)C2)ccc1N1CCC(=O)NC1=O [compound 118] | < 10
29 | Cc1cc(-c2cnc3[nH]cc(-c4ccc(C(=O)N(C)C)cc4)c3n2)cc(C)c1C1=CCN(CC2CCN(C(=O)c3ccc(Cl)c(N4CCC(=O)NC4=O)c3)CC2)CC1 [compound 120] | < 10
30 | Cc1cc(N2CC(CN3CC=C(c4c(C)cc(-c5cnc6[nH]cc(-c7cnn(C8CCN(C9CCC9)CC8)c7)c6c5)cc4C)CC3)C2)ccc1N1CCC(=O)NC1=O [compound 122] | < 10
31 | Cc1cc(N2CCC(CN3CC=C(c4c(C)cc(-c5cnc6[nH]cc(-c7ccc(C(=O)N(C)C)cc7)c6n5)cc4C)CC3)C2)ccc1N1CCC(=O)NC1=O (stereo not shown) [compound 123] | < 10

Continued, values first:

Row | IC50 [nM] | Compound
32 | < 10 | Cc1ccc(C(=O)N2CC(CN3CC=C(c4ccc(-c5cnc6[nH]cc(-c7ccc(C(=O)N(C)C)cc7)c6n5)cc4CN(C)C)CC3)C2)cc1N1CCC(=O)NC1=O [compound 051]
33 | < 10 | COc1ccc(C(=O)N2CC(CN3CC=C(c4ncc(-c5cnc6[nH]cc(-c7ccc(C(=O)N(C)C)cc7)c6n5)cc4CN(C)C)CC3)C2)cc1N1CCC(=O)NC1=O [compound 053]
34 | < 10 | CN(C)C(=O)c1ccc(-c2c[nH]c3ncc(-c4cnc(C5=CCN(CC6CN(c7ccc(C(=O)NC8CCC(=O)NC8=O)cn7)C6)CC5)c(F)c4)nc23)cc1 (stereo not shown) [compound 054]
35 | < 10 | Cc1cc(-c2cnc3[nH]cc(-c4ccc(C(=O)N(C)C)cc4)c3n2)cnc1C1=CCN(C2CCN(c3ccc(N4CCC(=O)NC4=O)c(F)c3)C2)CC1 (stereo not shown) [compound 055]
36 | < 10 | CCN1CCC(n2cc(-c3c[nH]c4ncc(-c5cc(C)c(C6=CCN(CC7CN(c8ccc(C9CCC(=O)NC9=O)cc8)C7)CC6)c(C)c5)nc34)cn2)CC1 (stereo not shown) [compound 056]
37 | < 10 | CN(C)C(=O)c1ccc(-c2c[nH]c3ncc(-c4ccc(C5=CCN(CC6CN(c7ccc(C(=O)NC8CCC(=O)NC8=O)cc7)C6)CC5)c(C5CCCN5)c4)nc23)cc1 (stereo not shown) [compound 058]
38 | < 10 | COc1cc(N2CC(CN3CC=C(c4c(C)cc(-c5cnc6[nH]cc(-c7ccc(C(=O)N(C)C)cc7)c6n5)cc4C)CC3)C2)ccc1C(=O)NC1CCC(=O)NC1=O (stereo not shown) [compound 059]
39 | < 10 | Cc1cc(-c2cnc3[nH]cc(-c4ccc(C(=O)N(C)C)cc4)c3n2)cc(C)c1C1=CCN(C(=O)C2CN(c3ccc(C4CCC(=O)NC4=O)cc3)C2)CC1 (stereo not shown) [compound 060]
40 | < 10 | Cc1cc(-c2cnc3[nH]cc(-c4ccc(C(=O)N(C)C)cc4)c3c2)cc(C)c1C1=CCN(CC2CN(c3ccc(C(=O)NC4CCC(=O)NC4=O)cc3)C2)CC1 (stereo not shown) [compound 063]
41 | < 10 | Cc1cc(-c2cnc3[nH]cc(-c4ccc(C(=O)N(C)C)c5ccccc45)c3n2)cc(C)c1C1=CCN(C2CN(c3ncc(C(=O)NC4CCC(=O)NC4=O)o3)C2)CC1 (stereo not shown) [compound 064]
42 | < 10 | Cc1cc(-c2cnc3[nH]cc(-c4ccc(C(=O)N(C)C)cc4)c3n2)cc(C)c1C1=CCN(CC2CCN(c3ccc(C(=O)NC4CCC(=O)NC4=O)cc3)CC2)CC1 (stereo not shown) [compound 065]
43 | < 10 | Cc1cc(-c2cnc3[nH]cc(-c4ccc5c(c4)C(C)(C)OC5=O)c3n2)cc(C)c1C1=CCN(C2CN(c3ccc(C4CCC(=O)NC4=O)cc3)C2)CC1 (stereo not shown) [compound 066]
44 | < 10 | Cc1cc(-c2cnc3[nH]cc(-c4ccc(C(=O)N(C)C)cc4)c3n2)cc(C)c1C1=CCN(CC2CN(c3ncc(C(=O)NC4CCC(=O)NC4=O)o3)C2)CC1 (stereo not shown) [compound 068]
45 | < 10 | Cc1ccc(C(=O)N2CC(CN3CC=C(c4c(C)cc(-c5cnc6[nH]cc(-c7cnc8c(c7C)NCCO8)c6n5)cc4C)CC3)C2)cc1N1CCC(=O)NC1=O [compound 069]
46 | < 10 | Cc1cc(-c2cnc3[nH]cc(-c4cnc5[nH]ccc5c4)c3n2)cc(C)c1C1=CCN(C2CN(c3ccc(C(=O)NC4CCC(=O)NC4=O)cc3)C2)CC1 (stereo not shown) [compound 070]
